According to the METLIN SMRT retention time set (Domingo-Almenara et al. 2019):

Assay: gradient 5% acetonitrile 3 min, to 50% in 2 min, to 85% in 15 min, held 3 min, 100 µL/min
Conditions: column: Zorbax Extend-C18 2.1 x 50 mm; eluents: water / acetonitrile, 0.1% formic acid
Summary of the method: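 Standards, all pure, were combined into mixtures of ~100 molecules and run at 100 μL/min on a Zorbax Extend-C18 column (2.1 × 50 mm, 1.8 μm) with water and acetonitrile, each containing 0.1% formic acid. A coupled quadrupole time-of-flight mass spectrometer operated in positive and negative ionization mode. Retention time values come from computationally picked adduct peaks, each inspected manually.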

| RP-LC retention time | SMILES |
| --- | --- |
| 855 s | Cc1nc(-c2ccc(NC(=O)c3ccc([N+](=O)[O-])cc3)cc2)cs1 |
| 714 s | Cc1cc(C)cc(C(=O)N2CCCC(C(=O)NC3CC3)C2)c1 (centres undefined) |
| 1030 s | O=C(Nc1ccccc1F)N1CCC(CCOc2ccccc2)CC1 |
| 874 s | CCOc1ccc(NC(=O)N2CCC3(CC2)NC(=O)c2ccc(Cl)cc2N3CC)cc1 |
| 708 s | O=C(Nc1nnc(C2CC(=O)N(c3ccccc3)C2)o1)c1ccc(F)cc1 (centres undefined) |
| 744 s | Clc1ccc(CCCOCCCN2CCCCC2)cc1 |
| 744 s | COc1cc(NC(=O)c2ccc(-n3cnc(NC(=O)C4CC4)c3)cc2)cc(OC)c1 |
| 622 s | c1ccc(COCCc2noc(C3CCCCN3)n2)cc1 (centres undefined) |
| 573 s | CN(C)C(=O)c1cc2c(s1)CCC(C(=O)N1CCN(C3CCCC3)CC1)C2 (centres undefined) |
| 772 s | O=C(CCNc1c(-c2cccc(F)c2)nc2cnccn12)NCc1cccc(Cl)c1 |
| 788 s | O=C(c1cccs1)N1CC(C(=O)N2CCN(c3ccccc3Cl)CC2)C1 |
| 700 s | Cn1c(N2CCCC(C(=O)Nc3ccc(F)cc3F)C2)cc(=O)n(C)c1=O (centres undefined) |
| 1210 s | O=S(=O)(Cc1cccc(Cl)c1)N1CCc2nc(-c3ccc(Cl)cc3)ncc2C1 |
| 722 s | CC1(C)C(=O)Nc2ccc(S(=O)(=O)N3CCC(c4noc(-c5cccnc5)n4)C3)cc21 (centres undefined) |
| 622 s | Oc1ccc2c(ccc3[nH]cnc32)c1 |
| 819 s | CSc1ccc(-c2nc3ccc(C)cn3c2Nc2ccc(C)cc2)cc1 |
| 1010 s | CC(C)(C)c1csc(-c2csc(S(=O)(=O)NC3CCCCCC3)c2)n1 |
| 782 s | Cc1ccc(-c2nnc(-c3nn(C)c4c3CN(S(=O)(=O)c3c(C)n[nH]c3C)CC4)o2)cc1 |
| 632 s | CC1CCCC(C)N1CCCNC(=O)Cn1ncc2c3ccccc3n(C)c2c1=O (centres undefined) |
| 825 s | CCOc1ccc(-c2nc(-c3ccc4c(c3)ncn4CCC(=O)N3CCCC3)no2)cc1 |
| 952 s | O=S(=O)(c1ccc2ccccc2c1)N1CCC(c2nc(-c3ccccn3)no2)CC1 |
| 906 s | CC(C)N1C(=O)c2cccnc2Sc2cc(NC(=O)Cc3ccccc3Cl)ccc21 |
| 914 s | CC(C)c1ccc(NC(=O)C2CCN(C(=O)c3ncn4c3COC(c3ccccc3)C4)CC2)cc1 (centres undefined) |

| RP-LC retention time | SMILES |
| --- | --- |
| 605 s | Cc1nc2cccnc2n1C1CCN(C(=O)Nc2ccccc2F)CC1 |
| 596 s | O=C(Cc1cccs1)NC1CCN(c2nnc3ccc(Cl)cn23)CC1 |
| 578 s | CC(C)N1CCN(C(=O)c2csc(N3CCN(c4ccccc4)CC3)n2)CC1 |
| 579 s | C=CCN1CCN(C(=O)C2CCN(c3nc(NC(C)=O)c(C(=O)N4CCCC4)s3)CC2)CC1 |
| 777 s | CCC(C)NC(=O)c1n[nH]c2c1CC(C)CC2 (centres undefined) |
| 644 s | CN1CCC2(CC1)CN(C(=O)Cn1c(=O)oc3ccccc31)Cc1ccccc1O2 |
| 677 s | O=C(Nc1c(-c2ccccc2)nc2ccccn12)c1ccc(Cl)cc1Cl |
| 620 s | CCNc1cc(N2CCC(CCC(=O)NC3CCN(C(=O)OCC)CC3)CC2)ncn1 |
| 786 s | O=S(=O)(Nc1ccc(Cn2cncn2)cc1)c1ccc2c(c1)CCCC2 |
| 910 s | O=C(CN1C(=O)CC(c2cccs2)=Nc2ccccc21)Nc1ccccc1F |
| 764 s | Cc1nc2cc(NC(=O)c3ccc(S(=O)(=O)N(C)CC4CCCO4)cc3)ccc2s1 (centres undefined) |
| 842 s | Cc1cccc(NC(=O)c2ncn3c2C(=O)N(C2CC2)C(C)(C(=O)NC2CCCC2)C3)c1C (centres undefined) |
| 711 s | COc1ccc(CNC(=O)Cn2c(C)nc3onc(C)c3c2=O)cc1 |
| 1030 s | Cc1ccc(CNC(=O)C2(C)CCCN(C(=O)Nc3ccc(F)c(Cl)c3)C2)cc1 (centres undefined) |
| 618 s | O=C(Nc1ccc(C2=NCCN2)cc1)c1ccc(Cl)c(C(=O)Nc2ccc(C3=NCCN3)cc2)c1 |
| 1070 s | Cc1ccc(-c2nc(C3CCN(C(=O)C4CC(=O)N(c5ccc(C)c(C)c5)C4)CC3)no2)cc1 (centres undefined) |
| 1010 s | COc1cccc(CNC(=O)C2CCCN(c3nc4ccccc4nc3OC)C2)c1 (centres undefined) |
| 910 s | O=S(=O)(c1ccc2nncn2c1)N(Cc1cc(F)cc(F)c1)c1cc(F)cc(F)c1 |
| 946 s | COc1ccc(C)cc1NC(=O)Cn1nc2c(Oc3ccc(Cl)cc3)nccn2c1=O |
| 1030 s | Cc1ccc2c(=O)c(S(=O)(=O)c3ccccc3)cn(Cc3cccc(Cl)c3)c2n1 |
| 819 s | O=C(CSCc1ccccc1)NCC1(c2cccs2)CCOCC1 |
| 632 s | COC[C@H]1NC(=O)CC[C@H]1C(=O)Nc1ccc2c(c1)OCCO2 |
| 662 s | CC1(O)CCOC2(CCN(C(=O)C3CCCC3)CC2)C1 (centres undefined) |

| RP-LC retention time | SMILES |
| --- | --- |
| 874 s | CC(C)[C@@H](C(=O)NCCc1c[nH]c2ccc(F)cc12)n1nnc2ccccc2c1=O |
| 954 s | Cc1ccc(C)c(Nc2c(-c3ccc(Cl)cc3)nc3ncccn23)c1 |
| 613 s | O=C(c1noc2c1CCCC2)N1CCN(c2ccccn2)CC1 |
| 748 s | Cn1c(=O)n(CC(=O)O)c(=O)c2c1nc1n2CCN1c1ccc(Cl)cc1 |
| 914 s | CC(C)c1ccc(-n2nc(N3CCN(C(=O)c4ccc5c(c4)OCO5)CC3)ccc2=O)cc1 |
| 626 s | Cc1noc(C)c1CC(=O)N1CCc2nn(CC3CC3)c(=O)n2CC1 |
| 691 s | CCn1c(C)c(CCC(=O)NCC2CCCO2)c(=O)n2nc(-c3ccccc3)nc12 (centres undefined) |
| 869 s | O=S(=O)(c1cccn2c(SCc3ccccc3F)nnc12)N1CCCCC1 |
| 692 s | Cc1ccnc(C(=O)Nc2ccc(Nc3ccc(-n4nc(C)c(C)c4C)nn3)cc2)n1 |
| 972 s | Clc1ccc2nc(-c3cccc(Br)c3)c(Nc3ccc4c(c3)OCCO4)n2c1 |
| 860 s | CCN(CC)C(=O)c1cc2c(s1)CCC(C(=O)Nc1ccc3c(c1)OCO3)C2 (centres undefined) |
| 613 s | O=C(NCc1ccccc1Cl)c1cn2c(n1)CCCC2 |
| 868 s | Cc1cc2nn(CC(=O)Nc3ccc(C)c(C)c3)c(=O)n2c(-c2ccccc2)n1 |
| 682 s | Cc1cc(C)c2c(N3CCSCC3)nc(C(=O)N(C)Cc3ccccc3)nc2n1 |
| 1050 s | Cc1ccc2ncn(C3CCN(S(=O)(=O)c4ccc(C(C)C)cc4)CC3)c(=O)c2c1 |
| 750 s | O=C(Nc1c(-c2ccccc2)nc2ccc(Cl)cn12)c1ccc(F)cc1 |
| 940 s | Brc1cn2c(Nc3ccc4c(c3)OCO4)c(-c3ccccc3)nc2cn1 |
| 624 s | O=C(CCC1NC(=O)c2ccccc2NC1=O)NCc1nc(-c2ccccc2)no1 (centres undefined) |
| 626 s | COc1ccc(NC(C)=O)cc1NC(=O)C1CC(=O)N(c2n[nH]c3ccccc23)C1 (centres undefined) |
| 718 s | COc1ccc(-c2cn3cccnc3n2)cc1NC(=O)c1ccc(F)c(F)c1 |
| 854 s | COc1ccc(Nc2nc(C(=O)N3c4ccccc4CC3C)cs2)cc1OC (centres undefined) |
| 554 s | NC(=O)CSc1ccc(-c2ccccn2)nn1 |
| 871 s | N#Cc1cc2c(nc1SCC(=O)Nc1nccs1)CCCCC2 |

| RP-LC retention time | SMILES |
| --- | --- |
| 758 s | Cc1ccc(Cc2noc(CN3CCCC3=O)n2)cc1 |
| 706 s | O=C(Nc1ccc2c(c1)OCCO2)N1CCC(Cc2nncn2-c2ccccc2)CC1 |
| 714 s | O=C(Cc1c(Sc2ccc(F)cc2)[nH]c2ccccc12)N1CCN(c2ccccn2)CC1 |
| 630 s | O=C(CSc1ncc(-c2ccccc2)[nH]1)N1CCCc2ccccc21 |
| 1030 s | CC(C)CCNC(=O)c1nnc(-c2ccc(S(=O)(=O)N3CCCCC3)cc2)o1 |
| 791 s | CCCc1nnsc1C(=O)NCCCC(=O)Nc1cccc2cccnc12 |
| 611 s | Clc1ccc(-c2ccc(CNCC3CCNCC3)o2)c(Cl)c1 |
| 996 s | CCCCn1cc(S(=O)(=O)NCc2ccccc2Cl)c2cccnc21 |
| 994 s | Cc1ccc(-c2nc(CCN(C)C(=O)Nc3cc(F)ccc3F)no2)cc1 |
| 950 s | CCCN1C(=O)COc2cc(-c3noc(C(=O)NC(C)CC)n3)ccc21 (centres undefined) |
| 633 s | CN1CCN(CCNC(=O)C2c3ccccc3C(=O)N(C3CCCC3)C2c2cccs2)CC1 (centres undefined) |
| 719 s | Cc1nn(-c2ccc(N3CCOCC3)nn2)c(C)c1CCC(=O)Nc1ccc(F)cc1F |
| 955 s | COc1cc(-c2noc(CCn3nc(-c4ccccc4)ccc3=O)n2)cc(OC)c1OC |
| 628 s | Cn1cnc(S(=O)(=O)N2CCC(c3noc(-c4ccncc4)n3)C2)c1 (centres undefined) |
| 687 s | Nc1nc(OCc2cc(Br)cs2)c2[nH]cnc2n1 |
| 771 s | O=C(CCCCCCNC(=O)c1cnc(N(c2ccccc2)c2ccccc2)nc1)NO |
| 935 s | CN(C)c1ccc(C(=O)N2CCN(C(=O)c3nnn4c3COC(c3ccc(Cl)cc3)C4)CC2)cc1 (centres undefined) |
| 966 s | COc1ccc(-n2cc(C(=O)Nc3ccc(SC)cc3)nn2)cc1 |
| 616 s | COCCNC(=O)c1cn2ccc(C)cc2n1 |
| 570 s | O=C(NCCN1CCOCC1)C1CCN(c2nc3cccnc3s2)CC1 |
